Assay results taken from patent EP0960886B1, “Peptide T and related peptides in the treatment of inflammation, including multiple sclerosis” (priority 1992, dated 1993).
Square brackets hold non-standard residues; d marks the D form. Ends that are not written are not given here. Peptide text beside a SMILES is read from it.

How the values were obtained:
LPS = LPS toxicity and survival in mice bearing Meth A ascites tumours (Example 7); assay type: in vivo; settings: 100 µg LPS subcutaneously with 1mg analogue
Method: Mice bearing Meth A ascites tumours were given 100 µg LPS subcutaneously with either bovine serum albumin (BSA) or peptide T analogue (504 or 505, 1mg). The number of animals showing signs of LPS toxicity (diarrhoea, exudate from the eyes and general level of activity) in each group was recorded at 19, 24 and 41 hours after injection. At the completion of the experiment the number of surviving animals was recorded (see Table II below) and the survivors bled for later determination of TNF, IL-1, IL-6 and RNI levels.

human neutrophils [1] = experiment: TNF-induced neutrophil chemiluminescence (lucigenin-dependent); assay type: cell-based; settings: 500-1000U/ml TNF
Method: (§1) Neutrophils. Neutrophils were isolated from whole blood from healthy blood donors. Separation was achieved by the rapid-single-step method of centrifugation of whole blood on FICOLL-HYPAQUE™. These were >99% viable and usually >98% pure.
(§2) Peptides and TNF. TNF was a recombinant product produced in E. coli. Peptide T and analogue 505 (D-Ser-Ser-D-Thr-Thr-D-Thr-Thr-Tyr-D-Thr) were resuspended in Hank's Balanced Salt Solution (HBSS).
(§3) To 100µl of 500-1000U/ml of TNF was added 10µl of peptide and after 5 min 100µl of 1x10^7 neutrophils/ml was added. The cells further incubated at 37°C/20 min and then tested for chemiluminescence activity. In some cases an agonist such as fMLP (10^-7M) was added. Chemiluminescence was measured in a luminometer (LKB). The results for Peptide T are presented in Figure 12 as peak rate of CL release. Lucigenin-dependent chemiluminescence was measured: this represents superoxide measurement. In another set of experiments the effects of analogue 505 on the LPS-induced neutrophil chemiluminescence were examined. In this case the LPS was essentially substituted for the TNF. The concentration of LPS was 0.005µg/ml.

human neutrophils [2] = experiment: LPS-induced neutrophil chemiluminescence; assay type: cell-based; settings: LPS 0.005µg/ml
Method: as §1, §2, §3

[3] = test system: mouse foetal hippocampal neurons; settings: cultures of mouse foetal hippocampal neurons; cited from earlier work
[4] = spinal administration to rats; tail-flick latency and tail-shock induced vocalisation; cited from earlier work

## C[C@H](O)[C@@H](NC(=O)[C@H](Cc1ccc(O)cc1)NC(=O)[C@@H](NC(=O)[C@H](NC(=O)[C@@H](NC(=O)[C@H](NC(=O)[C@H](CO)NC(=O)[C@H](N)CO)[C@H](C)O)[C@@H](C)O)[C@H](C)O)[C@@H](C)O)C(N)=O [analogue 505, D-Ser-Ser-D-Thr-Thr-D-Thr-Thr-Tyr-D-Thr] (H-[dS]S[dT]T[dT]TY[dT]-NH2)
LPS
  % mice surviving 41 hours: 100%
  % mice with diarrhoea at 19 hrs: 40%
  % mice with exudate at 19 hrs: 20%
Human neutrophils [1]
  TNF priming and activation of human neutrophils: inhibits TNF priming and activation
Human neutrophils [2]
  LPS activation of human neutrophils: inhibits LPS activation

## human vasoactive intestinal peptide (HSDAVFTDNYTRLRKQMAVKKYLNSILN; ends and bridges not checked; UniProt P01282 125-152, looked up) [VIP, reference compound]
[3]
  gp120-induced neurotoxicity: completely eliminated
[4]
  analgesia: produced analgesia

## C[C@H](O)[C@@H](NC(=O)[C@H](Cc1ccc(O)cc1)NC(=O)[C@H](CC(N)=O)NC(=O)[C@H](NC(=O)[C@@H](NC(=O)[C@H](NC(=O)[C@H](CO)NC(=O)[C@@H](C)N)[C@H](C)O)[C@@H](C)O)[C@H](C)O)C(N)=O [analogue 504]
LPS
  % mice surviving 41 hours: 100%
  % mice with diarrhoea at 19 hrs: 40%
  % mice with exudate at 19 hrs: 60%
